Experimental data reported in patent US6696490B2, “Slow release insect repellent compounds and process for delivering active” (priority 2002, dated 2004).
“Also recorded” adds a separate entry of the source.

Legend:
Type in all cases: in vivo
[1] = SPME/GC-MS of PMD generated by hydrolysis of PMDL placed on the skin; settings: 100 μg/cm^2 PMDL on skin, sampling 0 to 300 min, FIG. 3a
Experimental: Solid Phase Microextraction (SPME) is a sample preparation technique which has been used for trapping volatiles. In the subject invention, SPME was used to extract and concentrate PMD vapour (by-product of PMDL hydrolysis) in the headspace. The extracted analytes were then analyzed by Gas Chromatography-Mass Spectroscopy (GC-MS). The SPME fiber used here was from Supelco, a 2.0 cm long, StableFlex fiber (23-gauge needle), 50/30 divinylenzene/carboxene on polydimethylsiloxane. Agilent 6890 Gas Chromatography equipped with Agilent 5973 Mass Selective Detector and Chemstation, G1701CA software were used for analyzing and identifying PMD. GC was equipped with a 0.25 […] HP-5 capillary column with 0.25 micrometer of cross-linked 5% Phenyl Methyl Siloxane. The GC oven was programmed to increase its temperature at 2 min from the initial temperature of 60° C. to 300° C. at 6° C./min. The injector temperature and the head pressure were 250° C. and 8.6 psi, respectively. The flow rate of the carrier gas (helium) was 1 mL/min The total flow rate was set at 25 mL/min Purge was off for 0.5 min, i.e. from a split mode into a splitless mode after the program was started. Agilent 5973 Mass Selective Detector with an ion source by an electron impact (El) data system was used for mass spectrometric identification. […]

[2] = Ethanol extraction of PMD- and PMDL-treated skin followed by GC-MS
Experimental: PMDL standard and ethanol skin extracts were also analyzed by GC-MS. The injection mode for PMDL was a split mode at 10:1 split ratio. The rest of conditions were the same as the ones used for PMD analysis by GC-MS as are listed above. The SPME apparently is a tube (e.g., dome or other like structure) strapped to measured area (e.g., arm) with an opening (e.g., at top) to insert analytical extractor which is essentially a needle used to trap/absorb volatiles released in the apparatus.
(§1) In this set, individual stock solutions of PMD and PMDL were prepared by placing 0.0978 g PMD and 0.1095 g in 5 mL of ethanol, respectively. Then five areas of skin, about 7 cm^2 on each arm, were selected. One of the five spots on each arm remained untreated as control and marked as a blank. The remaining four areas on the right arm were dosed with 32 μL PMDL and the remaining four areas on the left arm were dosed with 36 μL of PMD. Untreated area 1, and the treated area on each arm marked as 2, 3, 4, and 5, were then extracted with 4 mL of ethanol for a period of 3 min at 0, 15, 60 and 150 min intervals, respectively. Collected extracts were then analyzed by GC-MS for their PMD and PMDL and by APCI-MS for their linoleic acid contents (FIGS. 4, 5, 6 and 7). FIG. 4 is plot of PMD, FIG. 5 is plot of PMDL; and FIGS. 6 and 7 are plots for linoleic acid.

[3] = Ethanol extraction of PMDL-treated skin followed by APCI-MS for linoleic acid; settings: FIGS. 6 and 7
Experimental: as §1, with “Another set of experiments was conducted to confirm the results obtained earlier from SPME-GC for PMD & PMDL and also to confirm hydrolysis of PMDL into linoleic acid and PMD on the skin by ethanol extraction of the skin followed by GC-MS and APCI-MS analysis of the collected extracts. In” for “In”, “FIG. 4 is plot of PMD, FIG. 5 is plot of PMDL; and FIGS. 6 and 7 are plots for linoleic acid.” left out
APCI-MS was used to analyze linoleic acid in ethanol skin extracts. […] Samples from the last set of experiments, as described in the […] were analyzed for their linoleic acid level using this technique. Each extracted sample was analyzed in triplicate.

[4] = SPME/GC-MS of headspace above forearm skin dosed with PMD (evaporation of PMD)
Experimental: Solid Phase Microextraction (SPME) is a sample preparation technique which has been used for trapping volatiles. In the subject invention, SPME was used to extract and concentrate PMD vapour (by-product of PMDL hydrolysis) in the headspace. The extracted analytes were then analyzed by Gas Chromatography-Mass Spectroscopy (GC-MS). The SPME fiber used here was from Supelco, a 2.0 cm long, StableFlex fiber (23-gauge needle), 50/30 divinylenzene/carboxene on polydimethylsiloxane. Agilent 6890 Gas Chromatography equipped with Agilent 5973 Mass Selective Detector and Chemstation, G1701CA software were used for analyzing and identifying PMD. GC was equipped with a 0.25 […] HP-5 capillary column with 0.25 micrometer of cross-linked 5% Phenyl Methyl Siloxane. The GC oven was programmed to increase its temperature at 2 min from the initial temperature of 60° C. to 300° C. at 6° C./min. The injector temperature and the head pressure were 250° C. and 8.6 psi, respectively. The flow rate of the carrier gas (helium) was 1 mL/min The total flow rate was set at 25 mL/min Purge was off for 0.5 min, i.e. from a split mode into a splitless mode after the program was started. Agilent 5973 Mass Selective Detector with an ion source by an electron impact (El) data system was used for mass spectrometric identification. The detector was used in a scan mode to scan mass ranging from a Low Mass of 40 to a High Mass of 550. Solvent delay time was 3.5 min. Total sample run time was 60 min.
To determine the extent of evaporation of PMD from the skin matrix over a period of time (correlating to amount of PMD produced by hydrolysis from PMD-L), a number of experiments were carried out. In these experiments, SPME fiber was inserted into a headspace of a glass semi-ball chamber fastened on forearm by an elastic band. […]
For a first set of SPME experiments, a PMD solution at concentration of 21800 μg/mL was prepared by placing 0.218 g of PMD crystals in 10 mL of absolute ethanol. […] The SPME glass chamber and fibers were then removed and the SPME fiber were analyzed by GC-MS for measurement of PMD. […]

| Molecule | PMD signal generated from hydrolysis of PMDL on the skin over time (SPME/GC-MS) [1] | PMD signal generated from hydrolysis of PMDL on the skin over time (SPME/GC-MS) ([1]; listed as PMD-L) | levels of PMDL on PMDL treated skin (GC-MS peak area of ethanol extracts) ([2]; leave on time 0 to 150 min, FIG. 5) | level of PMD on PMDL treated skin ([2]; over a 150 minute period) | linoleic acid level on PMDL treated skin over time ([3]; APCI-MS of ethanol extracts at 0, 15, 60 and 150 min) | level of linoleic acid in PMDL treated skin compared to untreated skin (blank) ([3]; APCI-MS of ethanol extracts) | time after which active is no longer present ([2]; PMD delivered in non-ester form, FIG. 4) [h] | PMD levels on PMD treated skin (GC-MS peak area of ethanol extracts) ([2]; leave on time 0 to 150 minutes, FIG. 4) | levels of PMD on the skin over leave on time (SPME/GC-MS) ([4]; 40 μg/cm^2 PMD applied neat, 0 to 300 minutes, FIG. 3b) | time over which PMD signal was followed and detected ([4]; 40 μg/cm^2 PMD on forearm skin, SPME extraction time 30 min, FIG. 3b) | time after which PMD signal could not be detected ([4]; 40 μg/cm^2 PMD on forearm skin, SPME sampling time 5 min) [h] |
| --- | --- | --- | --- | --- | --- | --- | --- | --- | --- | --- | --- |
| 3,8-p-Menthanedilinoleate [PMDL] | presence of high levels of PMD released from the skin at the early stage and then through a decrease in the PMD levels over period of time | initial sharp increase in the concentration of PMD | a trend of decrease in the levels of PMDL on the skin | simultaneous increase in the level of PMD on the skin | an increase in linoleic acid level over the 15 to 60 min period followed by a decrease at 150 min; also recorded: increase in linoleic on treated skin in first hour followed by a decrease | substantially higher in the treated skin samples compared to the untreated skin | – | – | – | – | – |
| CC1CCC(C(C)(C)O)C(O)C1 (centres unmarked) [PMD, 3,8-p-menthanediol, reference compound] | – | – | – | – | – | – | 2.5 | decreased as the leave on time increased from 0 to 150 minutes; also recorded: decrease of PMD | decreased as the leave on time proceeded from 0 to 300 minutes | up to 5 hours | 2 |
